# From patent publication US20250108023A1, “Products for Masking Bitterness” (The Third People's Hospital of Henan Province, priority 2023, published 2025)
# Target: T1, sodium ion channel of Trpm5 bitter receptor (Mus musculus, UniProt Q9JJH7)
# T1 construct: Put the removed tongue in a 2 ml EP tube, add 1-1.5 ml of 0.25% trypsin solution; from tissue; host or cells: cells dissociated with trypsin from mouse tongue
# T1 sequence (Q9JJH7 1-1158): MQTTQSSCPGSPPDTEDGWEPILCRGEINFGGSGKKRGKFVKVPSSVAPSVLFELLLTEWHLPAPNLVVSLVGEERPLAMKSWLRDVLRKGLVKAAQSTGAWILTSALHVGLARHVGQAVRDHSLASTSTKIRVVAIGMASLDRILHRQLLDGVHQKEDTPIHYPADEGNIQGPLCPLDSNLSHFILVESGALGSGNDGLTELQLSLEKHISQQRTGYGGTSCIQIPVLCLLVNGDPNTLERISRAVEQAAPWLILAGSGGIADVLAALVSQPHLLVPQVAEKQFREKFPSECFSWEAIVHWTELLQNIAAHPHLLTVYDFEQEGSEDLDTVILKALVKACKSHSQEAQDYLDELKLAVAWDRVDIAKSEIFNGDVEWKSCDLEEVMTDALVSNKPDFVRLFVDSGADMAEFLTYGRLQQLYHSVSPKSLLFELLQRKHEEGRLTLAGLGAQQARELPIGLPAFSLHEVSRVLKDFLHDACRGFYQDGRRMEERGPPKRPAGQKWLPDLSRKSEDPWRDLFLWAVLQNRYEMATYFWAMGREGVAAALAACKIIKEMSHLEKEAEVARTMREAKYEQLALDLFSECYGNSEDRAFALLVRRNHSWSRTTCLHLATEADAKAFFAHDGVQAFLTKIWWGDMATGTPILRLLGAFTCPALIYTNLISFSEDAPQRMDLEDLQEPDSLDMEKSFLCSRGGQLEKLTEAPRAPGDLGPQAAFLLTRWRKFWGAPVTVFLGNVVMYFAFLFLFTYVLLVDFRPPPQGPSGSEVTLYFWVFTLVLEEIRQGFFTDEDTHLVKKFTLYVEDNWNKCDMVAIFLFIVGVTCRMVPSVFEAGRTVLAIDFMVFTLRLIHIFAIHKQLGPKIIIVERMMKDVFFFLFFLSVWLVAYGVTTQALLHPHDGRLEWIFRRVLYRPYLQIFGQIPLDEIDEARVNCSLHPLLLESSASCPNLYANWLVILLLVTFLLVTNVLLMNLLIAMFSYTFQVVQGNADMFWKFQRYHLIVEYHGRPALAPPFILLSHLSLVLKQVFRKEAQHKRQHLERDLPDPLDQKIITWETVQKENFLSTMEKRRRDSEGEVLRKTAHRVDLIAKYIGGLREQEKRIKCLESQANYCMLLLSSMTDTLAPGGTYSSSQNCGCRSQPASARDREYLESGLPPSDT
# Test: Immunofluorescence experiment of sodium ion channels in mouse tongue cells stimulated with bitter agent
# Assay type: cell-based, mice
# Settings: for blocking effect on the sodium ion channel (result analysis in words): judged from change of sodium ion fluorescence after bitter drug
# Procedure: The mouse was killed by dislocation, and the tongue was removed (minimizing tongue bleeding), disinfected with alcohol for 2 minutes (adding sodium citrate for anticoagulation), and washed with D-Hanks solution or rinsed with 10 ml of saline solution drawn by a syringe.
# Take out the centrifuge tube from the constant temperature incubator, shake for 2 minutes, blow the undigested tongue several times with the gun tip, take out the tongue, cover it with the EP tube cap, put it in a centrifuge, centrifuge at 3000 rpm for 3 minutes, discard the supernatant, add cell culture medium (containing 10% inactivated serum), blow and disperse the cells, and place it in a 37° C. constant temperature incubator for 30 min to allow the cells to recover.
# (1) Take out the prepared ENG-2 AM storage solution and warm it to room temperature for use, keeping it away from light. The concentration of the pre-prepared stock solution is 2 mM and it is stored at −18° C. for future use.
# (2) Dilute the ENG-2 AM+DMSO stock solution to a […] working solution using serum-free culture medium.
# (3) Load the probe in a serum-free culture medium containing an appropriate concentration of AM probe.
# Take out the cells from the incubator, centrifuge, and discard the culture medium. Wash the cells once with D-Hanks solution, centrifuge, and discard the culture medium. Add 1 ml of culture medium again, then add 300 ul of sodium ion probe dilution solution, blow and disperse the cells, and incubate the cells at room temperature or 37° C. for 1 hour.
# At the end of incubation, centrifuge at 100 rpm for 2 minutes, discard the supernatant, add 500 ul of cell culture medium without AM probe, blow and disperse the cells, and incubate for 20-60 min to ensure that the cells completely deesterify the AM group.
# (4) Take 10 ul of incubation solution and drop it into the center of the cell counting plate, cover it with a slide, and observe it under a fluorescence microscope.
# (5) Use a low-power microscope to find the cells, open the fluorescence path, detect the fluorescence signal with a fluorescence microscope, change to a high-power microscope, find the appropriate observation cells, observe and take pictures to record the initial signal.
# (2) Experimental drugs: Add 5 ul of the tested drug to one side of the cover glass on the cell counting plate, use absorbent paper to absorb water on the opposite side, let the solution soak the cells, and then use a fluorescence microscope to observe and take 3-5 photos, one every 1-2 minutes; then add 5 ul of the standard bitter drug to one side of the cover glass on the cell counting plate, use absorbent paper to absorb water on the opposite side, let the solution soak the cells, and then use a fluorescence microscope to observe and take 3-5 photos, one every 1-2 minutes.
# (5) Data analysis: Use Image J-Fiji software to analyze the images, compare the average values of the fluorescence pixels, remove the base number and compare them in the table, draw FIGS. 4-6, and use SPSS18.0 to perform chi-square tests to compare the differences between the data groups.
# [1] = Bitterant 60 s (2% metronidazole solution)
# [2] = Bitterant 120 s (2% metronidazole solution)
# [3] = Bitterant 180 s (2% metronidazole solution)
# [4] = Initial (before addition of drug), sodium ion dye ENG-2 AM
# [5] = Bitterant 240 s (2% metronidazole solution)
average value of fluorescence brightness (Addition of drugs),"average value of fluorescence brightness, base number removed (Addition of drugs)",average value of fluorescence brightness [1],"average value of fluorescence brightness, base number removed [1]",average value of fluorescence brightness [2],"average value of fluorescence brightness, base number removed [2]",average value of fluorescence brightness [3],"average value of fluorescence brightness, base number removed [3]","average value of fluorescence brightness, base number removed (Initial)",average value of fluorescence brightness [4],average value of fluorescence brightness [5],"average value of fluorescence brightness, base number removed [5]",SMILES,blocking effect on the sodium ion channel (result analysis in words)
28.103,−0.125,27.797,−0.431,26.368,−1.86,26.329,−1.899,0,28.228,,,C=CCc1ccc(OC(C)=O)c(OC)c1 [Eugenol acetate],can block the sodium ion channel of Trpm5 bitter receptor
25.244,−0.093,25.15,−0.187,25.137,−0.2,25.08,−0.257,0,25.337,,,"CCCCC[C@H](O)CC(=O)CCc1ccc(O)c(OC)c1 [Gingerol, 6-gingerol]",can block the sodium ion channel of Trpm5 bitter receptor
27.648,−0.135,27.649,,27.44,−0.343,27.426,−0.357,0,27.783,26.46,−1.323,"C=CC(C)(O)CCC=C(C)C (stereo not shown) [Linalool, linalool]",can block the sodium ion channel of Trpm5 bitter receptor
25.48,−0.076,25.415,−0.141,25.447,−0.109,25.4,−0.156,0,25.556,,,"CC1CCC(C(C)C)C(=O)C1 (stereo not shown) [Menthone, 5-methyl-2-isopropylcyclohexanone]",can block the sodium ion channel of Trpm5 bitter receptor
28.92,0.041,28.747,−0.132,28.8,−0.079,28.851,−0.028,0,28.879,,,CC(C)[C@@H]1CC[C@@H](C)C[C@H]1OC(=O)CCC(=O)O [Menthyl succinate],can block the sodium ion channel of Trpm5 bitter receptor
26.795,−0.107,26.689,−0.213,26.699,−0.203,26.725,−0.177,0,26.902,,,"COc1cc(C(=O)O)ccc1O [Vanillic acid, 3-methoxy-4-hydroxybenzoic acid]",have poor effects and do not have bitterness masking effect

SMILES,average value of fluorescence brightness (Addition of drugs),"average value of fluorescence brightness, base number removed (Addition of drugs)",average value of fluorescence brightness [1],"average value of fluorescence brightness, base number removed [1]",average value of fluorescence brightness [2],"average value of fluorescence brightness, base number removed [2]",average value of fluorescence brightness [3],"average value of fluorescence brightness, base number removed [3]","average value of fluorescence brightness, base number removed (Initial)",average value of fluorescence brightness [4],average value of fluorescence brightness [5],"average value of fluorescence brightness, base number removed [5]",blocking effect on the sodium ion channel (result analysis in words)
"O=CC=Cc1ccccc1 [Cinnamaldehyde, 3-phenyl-2-propenal]",31.017,−0.328,30.893,−0.452,30.691,−0.654,30.597,−0.748,0,31.345,,,can block the sodium ion channel of Trpm5 bitter receptor
"CC(C)=CCCC(C)=CC=O [Citral, citral]",29.943,−0.335,29.766,−0.512,29.742,−0.536,29.647,−0.631,0,30.278,,,can block the sodium ion channel of Trpm5 bitter receptor
"COc1ccc(CCN(C)CCCC(C#N)(c2ccc(OC)c(OC)c2)C(C)C)cc1OC (stereo not shown) [Verapamil, 5-((3,4-dimethoxyphenylethyl)methylamino)-2-(3,4-dimethoxyphenyl)-2-isopropylvaleronitrile, reference compound]",27.77,−0.085,28.089,0.234,27.651,−0.204,27.574,−0.281,0,27.855,,,have poor effects and do not have bitterness masking effect
